Results on two compounds are retold here after patent US9593305B2, “Differentiation of pluripotent stem cells” (Janssen Biotech, Inc., priority 2008, dated 2017).

For the assay, the system named is H1 human embryonic stem cells. Briefly: Four-step differentiation with GDF-8, RT-PCR of pancreatic endoderm markers after step 4 (Example 19). The assay is classed as cell-based. The conditions noted are these: 100 ng/ml GDF-8 with Wnt3a or with 2.5 μM Compound 40. As for the experimental part: The differentiation process was started three days after the cells were seeded into 6-well plates. A four-step protocol was used for the in vitro differentiation of H1 human embryonic stem cells to cells expressing markers characteristic of the pancreatic endoderm lineage. Step 1 was conducted over three days to generate cells expressing markers characteristic of the definitive endoderm lineage. On the first day of step 1, differentiation was initiated by aspirating spent culture medium and adding an equal volume of RPMI-1640 basal medium (Invitrogen; Cat #22400) with 2% Albumin Bovine Fraction V, Fatty Acid Free (FAF BSA) (Proliant Biologicals; Cat #SKU 68700) and 8 ng/ml bFGF. In one treatment group, duplicate sets of cells were treated with 100 ng/ml GDF-8 (R&D Systems; Cat #788-G8) and 20 ng/ml Wnt3a (R&D Systems; Cat #1324-WN/CF). In a second treatment group, duplicate sets of cells were treated with 100 ng/ml GDF-8 and 2.5 μM Compound 40. On the second and third day of step 1 differentiation, cells in all treatment groups were fed with RPMI-1640 containing 2% FAF BSA, 8 ng/ml bFGF and 100 ng/ml GDF-8 but without the addition of Wnt3a or Compound 40. […]
Step 4 of the differentiation protocol was carried out over three days. […] On the following day, cells in suspension culture were collected and counted. […]

For the compound `C=CCN1CC(=O)NCCCc2cncc(c2)-c2ncnc(n2)Nc2cccc(c2)C1` [Compound 40, 14-Prop-2-en-1-yl-3,5,7,14,17,23,27-heptaazatetracyclo[19.3.1.1˜2.6˜0.1˜8,12˜]heptacosa-1(25), 2(27), 3,5,8(26), 9,11,21,23-nonaen-16-one], the “markers characteristic of the pancreatic endoderm lineage at the conclusion of step 4 (RT-PCR)” value is given as “expressed equivalent levels of markers characteristic of the pancreatic endoderm lineage”.

For “GDF-8: growth factor GDF-8, also known as myostatin, member of the TGF-β family”, the “markers characteristic of the pancreatic endoderm lineage at the conclusion of step 4 (RT-PCR)” value is on record as “expressed equivalent levels of markers characteristic of the pancreatic endoderm lineage”.
